# Source: US6677368B2, “4-aryl substituted indolinones” (Sugen, Inc., priority 2000, dated 2004)
# What was measured:
# Assay type in all cases: biochemical
# [1] = biological target: FGFR1 (Homo sapiens, UniProt P11362); assay: FGFR1 bioassay (ELISA, in vitro kinase activity); conditions: purified GST-FGFR1, poly(Glu-Tyr) substrate
# Experimental: This assay is used to measure the in vitro kinase activity of FGF1-R in an ELISA assay.
# 1. Costar 96-well ELISA plates (Corning Catalog #3369).
# 2. Poly(Glu-Tyr) (Sigma Catalog #P0275).
# 4. 50 mM Hepes Buffer Solution.
# 5. Blocking Buffer (5% BSA/PBS).
# 6. Purified GST-FGFR1 (SUGEN, Inc.)
# 7. Kinase Dilution Buffer. Mix 500 μl 1M Hepes (GIBCO), 20 μl 5% BSA/PBS, 10 μl 100 mM sodium orthovanadate and 50 μl 5M NaCl.
# 9. ATP/MnCl2 phosphorylation mix: mix 20 μL ATP, 400 μL 1M MnCl2 and 9.56 ml dH2O.
# 10. NUNC 96-well V bottom polypropylene plates (Applied Scientific Catalog #AS-72092).
# 12. 0.05% TBST Add 500 μL TWEEN to 1 liter TBS.
# 13. Rabbit polyclonal anti-phosphotyrosine serum (SUGEN, Inc.).
# 14. Goat anti-rabbit IgG peroxidase conjugate (Biosource, Catalog #ALI0404).
# 1. Coat Costar 96 well ELISA plates with 1 μg per well Poly(Glu-Tyr) in 100 μl PBS. Store overnight at 4° C.
# 2. Wash coated plates once with PBS.
# 3. Add 150 μL of 5%BSA/PBS Blocking Buffer to each well. Incubate, with shaking, for 1 hr at room temperature.
# 4. Wash plate 2× with PBS, then once with 50 mM Hepes. Pat plates on a paper towel to remove excess liquid and bubbles.
# 5. Add 25 μL of 0.4 mM test compound in 4% DMSO or 4% DMSO alone (controls) to plate.
# 6. Dilute purified GST-FGFR1 in Kinase Dilution Buffer (5 ng kinase/50 μl KDB/well).
# 7. Add 50 μL of diluted kinase to each well.
# 8. Start kinase reaction by adding 25 μl/well of freshly prepared ATP/Mn++ (0.4 ml 1M MnCl2, 40 μL 10 mM ATP, 9.56 ml dH2O), freshly prepared).
# 9. Stop reaction with 25 μL of 0.5M EDTA.
# 10. Wash plate 4× with fresh TBST.
# 11. Make up Antibody Dilution Buffer: For 50 ml, mix 5 ml of 5% BSA, 250 μl of 5% milk and 50 μl of 100 mM sodium vanadate, bring to final volume with 0.05% TBST.
# 12. Add 100 μl per well of anti-phosphotyrosine (1:10000 dilution in ADB). Incubate, with shaking for 1 hr. at room temperature.
# 14. Add 100 μl per well of Biosource Goat anti-rabbit IgG peroxidase conjugate (1:6000 dilution in ADB). Incubate, with shaking for 1 hr. at room temperature.
# 15. Wash as in step 10 and then with PBS to remove bubbles and excess TWEEN.
# 16. Add 100 μl of ABTS/H2O2 solution to each well.
# 17. Incubate, with shaking, for 10 to 20 minutes. Remove any bubbles.
# 18. Read assay on Dynatech MR7000 ELISA reader: test filter at 410 nM, reference filter at 630 nM.
# [2] = biological target: EGFR (Homo sapiens, UniProt P00533); assay: EGFR kinase inhibition
# EGFR, sequence (P00533 25-1210, species assumed): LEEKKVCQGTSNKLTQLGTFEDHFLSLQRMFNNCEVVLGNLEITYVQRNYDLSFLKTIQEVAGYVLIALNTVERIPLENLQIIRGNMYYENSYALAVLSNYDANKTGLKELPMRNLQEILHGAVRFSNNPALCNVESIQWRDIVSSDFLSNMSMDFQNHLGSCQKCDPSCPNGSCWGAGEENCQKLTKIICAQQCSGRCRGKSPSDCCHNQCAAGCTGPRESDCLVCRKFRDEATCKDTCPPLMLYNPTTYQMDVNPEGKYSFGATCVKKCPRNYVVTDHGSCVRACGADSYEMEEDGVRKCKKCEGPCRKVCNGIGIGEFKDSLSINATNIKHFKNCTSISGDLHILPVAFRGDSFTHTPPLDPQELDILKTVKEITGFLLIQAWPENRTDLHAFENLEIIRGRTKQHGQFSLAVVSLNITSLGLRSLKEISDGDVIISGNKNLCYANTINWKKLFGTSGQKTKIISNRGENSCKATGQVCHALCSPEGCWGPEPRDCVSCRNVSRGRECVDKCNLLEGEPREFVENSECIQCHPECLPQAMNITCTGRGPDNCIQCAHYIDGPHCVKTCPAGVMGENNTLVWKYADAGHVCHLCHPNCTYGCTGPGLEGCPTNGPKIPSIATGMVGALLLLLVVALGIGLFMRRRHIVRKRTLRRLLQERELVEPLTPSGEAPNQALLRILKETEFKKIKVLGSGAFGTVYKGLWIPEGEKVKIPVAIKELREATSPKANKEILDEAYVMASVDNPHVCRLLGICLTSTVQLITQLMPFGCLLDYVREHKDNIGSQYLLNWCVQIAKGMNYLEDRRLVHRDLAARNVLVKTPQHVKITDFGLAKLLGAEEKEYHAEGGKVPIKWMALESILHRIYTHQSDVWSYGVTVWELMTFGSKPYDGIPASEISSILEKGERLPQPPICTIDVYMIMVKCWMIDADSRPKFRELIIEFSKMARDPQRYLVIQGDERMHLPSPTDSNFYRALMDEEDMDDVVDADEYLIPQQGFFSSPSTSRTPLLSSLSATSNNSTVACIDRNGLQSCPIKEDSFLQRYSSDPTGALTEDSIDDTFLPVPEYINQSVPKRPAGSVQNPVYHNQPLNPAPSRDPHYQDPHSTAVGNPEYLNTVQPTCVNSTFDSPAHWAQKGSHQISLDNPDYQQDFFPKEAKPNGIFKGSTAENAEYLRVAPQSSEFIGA
# [3] = biological target: T1, PDGFR (UniProt P09619); assay: PDGFR bioassay (ELISA, in vitro kinase activity); conditions: PDGFR-β expressing NIH 3T3 cell lysate, 20 μM ATP
# T1 construct: PDGFR-β expressing NIH 3T3 cell lysate (SUGEN, Inc.)
# Experimental: This assay is used to the in vitro kinase activity of PDGFR in an ELISA assay.
# 1. Corning 96-well ELISA plates
# 2. 28D4C10 monoclonal anti-PDGFR antibody (SUGEN, Inc.).
# 5. Blocking Buffer (same as for EGFR bioassay).
# 6. PDGFR-β expressing NIH 3T3 cell lysate (SUGEN, Inc.).
# 11. Kinase buffer phosphorylation mix: for 10 ml, mix 250 μl 1M TRIS, 200 μl 5M NaCl, 100 μl 1M MnCl2 and 501l 100 mM Triton X-100 in enough dH2O to make 10 ml.
# 12. NUNC 96-well V bottom polypropylene plates.
# 14. Rabbit polyclonal anti-phosphotyrosine serum (SUGEN, Inc.).
# 15. Goat anti-rabbit IgG peroxidase conjugate (Biosource Cat. No. ALI0404).
# 17. Hydrogen peroxide, 30% solution.
# 1. Coat Corning 96 well ELISA plates with […] 28D4C 10 in 100 μl PBS per well, hold overnight at 4° C.
# 2. Remove unbound 28D4C10 from wells by inverting plate to remove liquid. Wash 1× with dH2O. Pat the plate on a paper towel to remove excess liquid.
# 3. Add 150 μl of Blocking Buffer to each well. Incubate for 30 min. at room temperature with shaking.
# 4. Wash plate 3× with deionized water, then once with TBST. Pat plate on a paper towel to remove excess liquid and bubbles.
# 5. Dilute lysate in HNTG (10 μg lysate/100 μl HNTG).
# 6. Add 100 μl of diluted lysate to each well. Shake at room temperature for 60 min.
# 7. Wash plates as described in Step 4.
# 8. Add 80 μl working kinase buffer mix to ELISA plate containing captured PDGFR.
# 9. Dilute test compound 1:10 in TBS in 96-well polypropylene plates.
# 10. Add 10 μl diluted test compound to -ELISA plate. To control wells, add 10 μl TBS+10% DMSO. Incubate with shaking for 30 minutes at room temperature.
# 11. Add 10 μl ATP directly to all wells except negative control well (final well volume should be approximately 100 μl with 20 μM ATP in each well.) Incubate 30 minutes with shaking.
# 12. Stop reaction by adding 10 μl of EDTA solution to each well.
# 13. Wash 4× with deionized water, twice with TBST.
# 14. Add 100 μl anti-phosphotyrosine (1:3000 dilution in TBST) per well.
# Incubate with shaking for 30-45 min. at room temperature.
# 16. Add 100 μl Biosource Goat anti-rabbit IgG peroxidase conjugate (1:2000 dilution in TBST) to each well. Incubate with shaking for 30 min. at room temperature.
# 18. Add 100 μl of ABTS/H2O2 solution to each well.
# 19. Incubate 10 to 30 minutes with shaking. Remove any bubbles.
# 20. If necessary stop reaction with the addition of 100 μl 0.2 M HCl per well.
# 21. Read assay on Dynatech MR7000 ELISA reader with test filter at 410 nM and reference filter at 630 nM.
# [4] = biological target: FGFR3 (Homo sapiens, UniProt P22607); assay: FGFR3 kinase inhibition
# FGFR3, sequence (P22607 23-806, species assumed): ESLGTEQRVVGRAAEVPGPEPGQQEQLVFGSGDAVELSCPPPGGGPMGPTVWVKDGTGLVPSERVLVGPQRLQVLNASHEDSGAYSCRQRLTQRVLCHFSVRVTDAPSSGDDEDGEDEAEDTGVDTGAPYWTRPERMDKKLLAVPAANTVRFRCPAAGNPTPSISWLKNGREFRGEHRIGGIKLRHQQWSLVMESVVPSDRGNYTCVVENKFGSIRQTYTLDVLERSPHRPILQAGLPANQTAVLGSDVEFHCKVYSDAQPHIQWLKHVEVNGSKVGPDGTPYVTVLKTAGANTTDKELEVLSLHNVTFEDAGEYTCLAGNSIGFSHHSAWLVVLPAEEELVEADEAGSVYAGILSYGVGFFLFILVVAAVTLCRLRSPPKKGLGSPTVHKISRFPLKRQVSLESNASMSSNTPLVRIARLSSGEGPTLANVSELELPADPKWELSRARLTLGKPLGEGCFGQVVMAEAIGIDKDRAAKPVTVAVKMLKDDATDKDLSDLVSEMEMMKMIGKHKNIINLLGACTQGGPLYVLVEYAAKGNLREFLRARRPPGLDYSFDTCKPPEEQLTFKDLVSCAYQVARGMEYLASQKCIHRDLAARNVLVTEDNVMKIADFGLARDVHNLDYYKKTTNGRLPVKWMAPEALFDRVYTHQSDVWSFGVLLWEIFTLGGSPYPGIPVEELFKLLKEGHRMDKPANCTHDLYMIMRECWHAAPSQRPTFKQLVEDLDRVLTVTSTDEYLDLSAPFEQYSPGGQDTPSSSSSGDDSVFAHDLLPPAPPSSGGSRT
# [5] = biological target: P38 (Homo sapiens, UniProt Q16539); assay: P38 kinase inhibition
# P38, sequence (Q16539 whole entry): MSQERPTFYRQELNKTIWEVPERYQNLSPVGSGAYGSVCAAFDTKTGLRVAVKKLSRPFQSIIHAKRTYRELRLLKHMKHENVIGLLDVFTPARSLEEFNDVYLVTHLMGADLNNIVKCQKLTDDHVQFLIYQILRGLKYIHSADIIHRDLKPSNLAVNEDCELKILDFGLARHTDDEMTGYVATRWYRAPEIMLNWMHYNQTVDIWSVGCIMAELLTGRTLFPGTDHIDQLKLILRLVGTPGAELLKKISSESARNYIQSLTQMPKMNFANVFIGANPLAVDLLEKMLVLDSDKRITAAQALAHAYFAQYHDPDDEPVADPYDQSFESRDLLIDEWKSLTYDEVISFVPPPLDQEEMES
# FGFR1, sequence (P11362 22-822, species assumed): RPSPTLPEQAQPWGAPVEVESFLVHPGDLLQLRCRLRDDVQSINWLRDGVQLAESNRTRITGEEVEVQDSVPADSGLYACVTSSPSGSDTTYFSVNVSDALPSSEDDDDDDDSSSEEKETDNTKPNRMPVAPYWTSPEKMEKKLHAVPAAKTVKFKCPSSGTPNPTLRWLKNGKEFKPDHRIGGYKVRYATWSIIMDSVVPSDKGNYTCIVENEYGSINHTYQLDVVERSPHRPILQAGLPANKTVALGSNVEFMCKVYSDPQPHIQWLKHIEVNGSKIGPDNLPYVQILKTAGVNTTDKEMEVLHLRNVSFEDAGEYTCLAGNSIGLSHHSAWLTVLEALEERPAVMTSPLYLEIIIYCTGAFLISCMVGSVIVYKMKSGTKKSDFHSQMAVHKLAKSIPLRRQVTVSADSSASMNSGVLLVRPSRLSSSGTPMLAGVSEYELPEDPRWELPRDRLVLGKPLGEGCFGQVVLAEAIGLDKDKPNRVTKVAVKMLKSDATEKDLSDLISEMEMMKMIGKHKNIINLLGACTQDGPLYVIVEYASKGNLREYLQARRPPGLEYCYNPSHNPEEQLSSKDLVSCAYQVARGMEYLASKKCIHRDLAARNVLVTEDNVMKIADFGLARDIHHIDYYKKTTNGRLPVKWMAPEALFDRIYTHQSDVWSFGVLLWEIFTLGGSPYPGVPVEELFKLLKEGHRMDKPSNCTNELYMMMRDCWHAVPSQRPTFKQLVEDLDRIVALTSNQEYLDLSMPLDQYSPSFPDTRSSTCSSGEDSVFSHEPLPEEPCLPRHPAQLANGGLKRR
IC50 [1],IC50 [2],IC50 [3],IC50 [4],IC50 [5],SMILES
57 nM,15900 nM,1640 nM,74 nM,13100 nM,"Cc1[nH]c(/C=C2\C(=O)Nc3cccc(-c4ccc(Cl)cc4)c32)c(C)c1C(=O)NCCN1CCCC1 [Example 22, 5-[4-(4-Chloro-phenyl)-2-oxo-1,2-dihydro-indol-3-ylidenemethyl]-2,4-dimethyl-1H-pyrrole-3-carboxylic Acid (2-Pyrrolidin-1-yl-ethyl)-amide]"
29 nM,12900 nM,690 nM,320 nM,> 10000 nM,"CCN(CC)CCNC(=O)c1c(C)[nH]c(/C=C2\C(=O)Nc3cccc(-c4cccc(Cl)c4)c32)c1C [Example 29, 5-[4-(3-Chloro-phenyl)-2-oxo-1,2-dihydro-indol-3-ylidenemethyl]-2,4-dimethyl-1H-pyrrole-3-carboxylic Acid (2-Diethylamino-ethyl)-amide]"
80 nM,16400 nM,2190 nM,46 nM,> 10000 nM,"COc1ccc(-c2cccc3c2/C(=C/c2[nH]c(C)c(C(=O)NCCN4CCCC4)c2C)C(=O)N3)cc1 [Example 38, 5-[4-(4-Methoxy-phenyl)-2-oxo-1,2-dihydro-indol-3-ylidenemethyl]-2,4-dimethyl-1H-pyrrole-3-carboxylic Acid (2-Pyrrolidin-1-yl-ethyl)-amide]"
150 nM,7010 nM,2370 nM,550 nM,7900 nM,"Cc1[nH]c(/C=C2\C(=O)Nc3cccc(-c4ccc(Br)cc4)c32)c(C)c1C(=O)NCCN(C(C)C)C(C)C [Example 60, 5-[4-(4-Bromo-phenyl)-2-oxo-1,2-dihydro-indol-3-ylidenemethyl]-2,4-dimethyl-1H-pyrrole-3-carboxylic Acid (2-Diisopropylamino-ethyl)-amide]"
